Test results reported in patent US9486440B2, “Uses of indole-ketones or indolidones as neuro-protective drugs” (UNIVERSITY OF MACAU, priority 2011, dated 2016).
pKi: −log10 of the molar value. “Also recorded” adds a separate entry of the source.

How the values were obtained:
[1] = tested on: CGNs; assay: Hoechst 33342 staining of CGNs after MPP+; assay type: cell-based, rat; conditions: 20 μM, 35 μM MPP+
Method: Chromatin condensation was detected by nucleus staining with Hoechst 33342 as described by Li et al., 2005. CGNs (2.7×10^6 cells) grown in a 35-mm dish were washed with ice-cold phosphate-buffered saline (PBS) and fixed with 4% formaldehyde in PBS. The cells were then stained with Hoechst 33342 (5 μg/ml) for 5 min at 4° C. The nuclei were visualized using a fluorescence microscope at ×400 magnification.
Chromatin condensation was detected by staining the cell nucleus with Hoechst 33342 as described by Li et al., 2005. CGNs (2.7×10^6 cells) grown in a 35-mm dish were washed with ice-cold phosphate-buffered saline (PBS), fixed with 4% formaldehyde in PBS, membrane-permeabilized in 0.1% Triton X-100 and blocked in 1% BSA. Cells were then exposed to a primary nNOS antibody (Santa Cruz) overnight at 4° C. followed by incubation at room temperature with an Alexa Fluor 488-conjugated secondary antibody. After immunostaining, cells were then stained with Hoechst 33342 (5 μg/ml) at 4° C. for 5 min. Images were acquired using a fluorescence microscope at ×100 magnification.
To quantify the percentage of apoptotic nuclei in each group, photos of each dish (n=3 dishes in each group for three independent experiments) were taken at five random fields and the numbers of apoptotic nuclei and total nuclei (n=300) were counted, and the percentage of apoptotic nuclei was averaged.

[2] = tested on: DA neurons in the zebrafish brain; assay: MPTP zebrafish, whole-mount immunostaining against tyrosine hydroxylase; assay type: in vivo; conditions: 200 μM MPTP, 2 days from 1 dpf; SU4312 3-30 μM, PTK787/ZK222584 0.3-3 μM, SU5416 0.1-1 μM, VRI 0.03-0.3 μM
Method: Wild-type zebrafish (AB strain) and Tg (fli-1:EGFP) transgenic zebrafish were maintained as described in the Zebrafish Handbook (Westerfield, 1993). Zebrafish embryos were generated by natural pair-wise mating (3-12 months old) and raised at 28.5° C. in embryo medium (13.7 mM NaCl, 540 μM KCl, pH 7.4, 25 μM Na2HPO4, 44 μM KH2PO4, 300 μM CaCl2, 100 μM MgSO4, 420 μM NaHCO3, pH 7.4). […] An equal concentration of DMSO in embryo medium was used as vehicle control in each experiment.

[3] = tested on: SH-SY5Y cells; assay: MPP+-induced neurotoxicity in SH-SY5Y cells, MTT assay; assay type: cell-based, human; conditions: for cell proliferative or cytotoxic effects of the drug alone, SH-SY5Y cells: alone for 26 hours, 10 μM SU4312, 3 μM PTK787/ZK222584, 0.3 μM sunitinib; for toxicity to SH-SY5Y cells at higher concentration: higher concentration (sunitinib 1 μM), data not shown; for MPP+-induced neuronal death in SH-SY5Y cells (MTT): pre-treatment 2 hours, then 1 mM MPP+ for 24 hours
Method: The human neuroblastoma SH-SY5Y cells were obtained from ATCC. The cells were maintained in supplemented Dulbecco's modified eagle medium (DMEM), 10% fetal bovine serum, 100 U/ml penicillin, and 100 μg/ml streptomycin in a 37° C., 5% CO2 incubator. PC12 pheochromocytoma cells were also obtained from ATCC. The cells were cultured in medium that consisted of DMEM, 10% heat-inactivated horse serum, 5% fetal bovine serum, 100 U/ml penicillin, and 100 μg/ml streptomycin in a 37° C., 5% CO2 incubator. All experiments were carried out 48 hours after the cells were seeded. […] The assay was performed according to the specifications of the manufacturer (MTT kit I; Roche Applied Science). […] After the incubation, 100 μl of the solvating solution (0.01 N HCl in 10% SDS solution) was added to each well for 16-20 hours. Absorbance of the samples was measured at a wavelength of 570 nm with 655 nm as a reference wavelength. Unless otherwise indicated, the extent of MTT conversion in cells exposed to MPP^+ is expressed as a percentage of the control.

[4] = biological target: T1, recombinant human endothelial NOS (eNOS) (Homo sapiens, UniProt P29474); assay: In vitro NOS activity assay, eNOS; assay type: biochemical; conditions: PTK787/ZK222584 up to 1 mM
T1 construct: purchased Alexis Biochemicals (Lausen, Switzerland)
Method: (§1) In the in vitro NOS activity assay (Li et al., 2007), purified recombinant human nNOS, endothelial NOS (eNOS), and inducible NOS (iNOS) were bought from Alexis Biochemicals (Lausen, Switzerland). NOS activity was determined by monitoring the conversion of L-[3H]arginine to [3H]citrulline following the instructions provided in the kit (Calbiochem, USA). The reaction mixture contained a final volume of 40 μl with 25 mM Tris-Cl at pH 7.4, 3 μM tetrahydrobiopterin, 1 μM FAD, 1 μM FMN, 1 mM NADPH, 0.6 mM CaCl2, 0.1 μM calmodulin, 2.5 μg of pure NOS enzyme, 5 μl L-[3H]arginine (Perkin Elmer, Waltham, Mass., USA), and different concentrations of the tested reagents. The reaction mixture was incubated at 22° C. for 45 min. The reaction was quenched by adding 400 μl of stopping buffer (50 mM HEPES, pH 5.5, and 5 mM EDTA) for nNOS and eNOS reactions or by heating reactive tubes for iNOS. Unreacted L-[3H]arginine was then trapped by 100 μl of equilibrated resin provided in a spin cup followed by centrifugation for 30 s at 13,200 rpm. The filtrate was quantified by liquid scintillation counting.

[5] = biological target: nNOS (Homo sapiens, UniProt P29475); assay: In vitro NOS activity assay, nNOS; assay type: biochemical; set-up: purchased Alexis Biochemicals (Lausen, Switzerland); conditions: for inhibition of recombinant human nNOS: PTK787/ZK222584 up to 1 mM
Method: as §1

Compound | nuclear condensation / apoptotic nuclei (Hoechst 33342) [1] | MPTP-induced loss of DA neurons / decrease of TH+ region area [2] | cell proliferative or cytotoxic effects of the drug alone, SH-SY5Y cells [3] | toxicity to SH-SY5Y cells at higher concentration [3] | MPP+-induced neuronal death in SH-SY5Y cells (MTT) [3] | inhibition of recombinant human eNOS [4] | pKi ([5]; 10 and 20 μM SU4312, 5 to 40 μM L-[3H]arginine, Lineweaver-Burk, read-out: Ki value of nNOS inhibition) | mode of nNOS inhibition ([5]; Lineweaver-Burk plots) | inhibition of recombinant human nNOS [5] | MPP+-induced neuronal death in SH-SY5Y cells (MTT) ([3]; listed as PTK787)
Cc1cc(C)c(/C=C2\C(=O)Nc3ccccc32)[nH]1 [SU5416, (3Z)-3-[(3,5-dimethyl-1H-pyrrol-2-yl)methylidene]-1,3-dihydro-2H-indol-2-one] | significantly reversed neuronal apoptosis induced by MPP^+ | significantly prevented the decrease in the area of TH^+ region induced by MPTP |  |  |  |  |  |  |  | 
CN(C)c1ccc(C=C2C(=O)Nc3ccccc32)cc1 [SU4312, 3-[4-(dimethylamino)benzylidenyl]indolin-2-one] | significantly reversed nuclear condensation induced by MPP^+ | significantly alleviated the loss of DA neurons | did not show cell proliferative or cytotoxic effects | at higher concentration conferred toxicity | prevented MPP^+-induced dopaminergic neuronal death at 3-10 μM in SH-SY5Y cells | no activity against eNOS | 4.90 | inhibited nNOS in a non-competitive manner; also recorded: did not alter Km but increased the appeared 1/Vmax | directly and selectively inhibit recombinant human nNOS relative to iNOS | 
Clc1ccc(Nc2nnc(Cc3ccncc3)c3ccccc23)cc1 [PTK787/ZK222584] |  |  | did not show cell proliferative or cytotoxic effects | at higher concentration conferred toxicity | at 3 μM failed to block neuronal loss induced by MPP^+ | did not inhibit any of the isoforms even at 1 mM |  |  | did not inhibit any of the isoforms even at 1 mM | at 1 and 3 μM failed to block neuronal loss induced by MPP^+
